The values below come from patent publication US10757944B2, “Ozone treatment for elimination of pathogens” (priority 2016, dated 2020).

Each structure is given as a SMILES string.

In the test the test system is Escherichia Coli, Salmonella enterica sv typhimurium, Listeria monocytogenes and Candida albicans. The test can be described thus: Gaseous ozone treatment of inoculated Cannabis, summary statements for all organisms. Format: cell-based. As for the experimental part:
Cannabis plants were individually contaminated with Escherichia Coli, Salmonella enterica sv typhimurium, Listeria monocytogenes and Candida albicans then exposed to gaseous ozone for 20 minutes at 100 ppm and 200 ppm.
Pure cultures of Escherichia coli and Listeria monocytogenes provided by the American Type Culture Collection (ATCC) were grown in selective media broths. The Candida albicans provided by ATCC was grown on potato dextrose agar, and after significant growth was achieved, the colonies were transferred and suspended in Butterfield's buffer. After significant turbidity in each broth of pathogens was observed, they, along with Butterfield's buffer with the suspended Candida albicans, were used to inoculate individual Cannabis samples. This process created four individual populations of Cannabis with each population being contaminated with one of the four organisms grown. After inoculating the samples they were allowed to dry overnight by placing them out in the open at room temperature. Each population of Cannabis was then divided into smaller individual 2-4 gram samples which were used in the tests. One test consisted of placing nearly half of the smaller samples into an ozone gas chamber for 20 minutes at an approximate ozone concentration of 100 ppm. The remaining samples were set aside to be used as controls.
Three samples for each organism were tested at each of the concentrations. The control samples were placed into the same chamber for 20 minutes with an ozone concentration of 0 ppm. All samples were then analyzed for their microbial counts by first generating serial dilution using Butterfield's buffer as the diluent for each sample then individually plating the resultant dilutions onto selective media appropriate for the organism being analyzed. After the required incubation temperatures and times were completed, the organisms on the plates were counted. For each set of dilutions of a given sample and starting at the plate representing the lowest dilution ratio, the first plate that was countable was counted and the result was recorded. […]

On to `O=[O+][O-]` [ozone], for which the “kill of all of the organisms involved in the test (in words)” value (100 ppm ozone, first day (Table 1)) is given as “significant kill”. In addition, the “kill of all organisms compared to the controls (in words)” value (100 ppm ozone, second day (Table 2)) is reported as “significant kill”. The “kills at 200 ppm compared to the kills at 100 ppm (in words)” value (200 ppm ozone, second day (Table 2)) is on record as “amount of kills increased”.
